Measured values as given in patent publication US12605362B2, “Eletriptan hydrobromide for treatment of spinal cord injury and improvement of locomotor function” (TECHNOPHAGE, INVESTIGAÇÃO E DESENVOLVIMENTO EM …, priority 2020, dated 2026).
Counter-ions that a name gives are not always drawn.

What was measured:
5-HT1D = 5-HT1D (Homo sapiens, UniProt P28221); settings: serotonin receptor agonist; cited from earlier work
[1] = system: mice with T9 contusion type of injury; assay: Basso Mouse Scale (BMS) open-field locomotion after T9 contusion spinal cord injury; assay type: in vivo
Method: Adult female C57BL/6J mice (8-10 weeks-old; Charles River) were used in this study. The mice were housed three to four per cage and were maintained on a 12-hour light/dark cycle with food and water ad libitum for the duration of the study.
A moderate-severe contusion-type of injury was performed on adult C57BL/6 female mice (10-12 weeks) with an Infinite Horizon Impactor (PSI)^30. All surgeries were performed under aseptic conditions. Briefly, under deep anesthesia with Ketamine and Xylazine (120 mg/kg and 16 mg/kg respectively, i.p.) mice received a dorsal laminectomy at the level of 9th thoracic vertebra (T9). After securing the lateral processes of the 8th thoracic vertebra (T8) and 10th thoracic vertebra (T10) with a stainless-steel impactor tip, a controlled force-defined impact at 75 kdyne was delivered to the exposed spinal cord^28,30. Then, muscle and skin were closed with 4.0 polyglycolic acid (PGA) absorbable sutures (Safil, G1048213). In this study, mice were excluded when the actual displacement value was outside the interval 500-700 μm or if the actual force after impact was >2SD 75 Kdyne. Immediately after injury, mice were injected subcutaneously with 0.5 ml of sterile saline and then daily for 5 days. During this experiment, mice underwent gentle bladder expression twice daily until they were voiding on their own. Weight was monitored daily until 15 days-post-injury (dpi) and then weekly for the duration of the study and a high caloric pellet (Supreme Mini-Treats™ S05478 and S05472) was provided as a dietary supplement since a 10% weight loss was typically observed in this SCI model upon injury.
The Eletriptan Hbr (Sigma-Aldrich, PZ0011) dosage used were equivalent to the human market dose^31 and all treatment dosages were aliquoted using a coded system to maintain double-blinded measures. This code was only unveiled at the end of all behavioural tests. Mice were randomly distributed to each experimental group (SCI+Vehicle and SCI+Eletriptan Hbr). Vehicle and Eletriptan Hbr were administered via intraperitoneal injection (i.p.), beginning 1 hour after injury (hpi) and then daily until 15 dpi.
Open-field locomotion was assessed with the BMS rating system^30,32. The open-field used was a round platform with 85 cm in diameter and 30.5 cm high, located in a quiet testing room with normal lighting. The mice were habituated to the testing platform for 5 minutes daily for 2 weeks before surgery. The BMS testing (BMS scoring and subscoring) was performed as previously described^28,30. Briefly, mice were tested before surgery, to obtain baseline pre-operation locomotion values, where it is expected a maximum S score value. To determine the functional recovery after treatment the BMS score of each mouse was evaluated at 1, 3, 7, 14 dpi and then weekly until the end of the experiments. The evaluation of BMS score and subscore was always performed by two raters who were blind to the treatment groups and scored hindlimb locomotion for 4 minutes per mouse. If the scores differed between raters, the final score taken was the average of both scores.
To validate the therapeutic effect of Eletriptan Hbr for SCI indication in a non-regenerative model, it was decided to test its efficacy in a SCI rodent model. Therefore, a contusion type of injury was performed in C57BL/6 female mice, using an Infinite Horizon (IH) Impactor and the Basso Mouse Scale (BMS) test^32 was used to evaluate the locomotor performance of the animals after injury. First, mice were habituated to the open-field platform and after 15 days they were injured with a moderate-severe T9 contusion (75 kdyne) (FIG. 2A). Immediately after injury and upon biomechanical exclusion criteria, mice were randomly distributed to each experimental group (SCI+Vehicle and SCI+Eletriptan Hbr). Treatment dosages (Vehicle or Eletriptan Hbr) were administered via intraperitoneal (i.p.) injection, beginning 1 hour-post-injury (1hpi), and then daily until 15 dpi (FIG. 2A). […]

5-HTIF = target: T1, 5-HTIF (Homo sapiens, UniProt P30939); settings: serotonin receptor agonist; cited from earlier work
T1 sequence (P30939 1-366): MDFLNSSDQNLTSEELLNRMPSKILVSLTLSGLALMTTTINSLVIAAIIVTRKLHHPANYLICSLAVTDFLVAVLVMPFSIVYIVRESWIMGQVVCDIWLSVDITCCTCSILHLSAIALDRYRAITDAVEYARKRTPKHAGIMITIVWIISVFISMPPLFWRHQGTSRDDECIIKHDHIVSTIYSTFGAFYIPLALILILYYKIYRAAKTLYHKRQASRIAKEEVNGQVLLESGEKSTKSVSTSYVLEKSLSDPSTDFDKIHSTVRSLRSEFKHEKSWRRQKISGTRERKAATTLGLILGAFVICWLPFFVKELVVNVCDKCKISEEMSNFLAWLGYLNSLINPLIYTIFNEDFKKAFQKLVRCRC

[2] = system: transected zebrafish larvae; assay: larval zebrafish phenotypic-based screen for SCI (transected spinal cord, DanioVision swimming activity); assay type: in vivo
Source text: Tg(mnx1:GFP^m12), abbreviated as hb9:GFP were maintained and bred in constant conditions, by following standard guidelines for fish care and maintenance protocols^27. Zebrafish larvae were used in the phenotypic-based screen for SCI.
A larval zebrafish phenotypic-based screen was used to screen a pool of compounds from a small molecule library (PHARMAKON 1600-MicroSource Discovery Systems, Inc., USA) as previously described by Diana et al. 201928. Briefly, zebrafish larvae were allowed to develop in EM with 1 μM methylene blue until 5 days-post-fertilization (dpf). At 5dpf, zebrafish larvae spinal cords were transected at the level of the anal pore (Diana et al. 2019). At 1 dpi, larvae were randomly distributed into 6-well plates containing EM+10 mM HEPES and exposed during 24 hours to the chemical compounds added to the medium. At 2 dpi, behavioural assessment was performed using DanioVision™ (Noldus Information Technology, the Netherlands) an automated tracking system for zebrafish larvae. Larvae were allowed to freely swim in a 96-well plate (1 larva/well) with EM+10 mM HEPES and their swimming activity was tracked for […], under 10 minutes light-dark cycles (i.e. 3 light cycles and 3 dark cycles). The acquired track data was analysed using the Ethovision X.T. 10 software (Noldus, Wageningen, Netherlands) and only swimming activity obtained in the 3 dark periods were analysed^29.
To accelerate the discover of potential new therapeutics for spinal cord injury (SCI) we used a phenotypic assay that enabled the screening of a pool of chemical compounds from an FDA approved small molecules library. In this phenotypic-based screen, we blindly administered the chemical compounds (25 μM) at 1 day-post-injury (dpi) and we performed the behavioural assessment 24 hours later (i.e. at 2 dpi) as previously described by Chapela D. et al. 2019. The small molecules were first blindly selected, if there was a statistically significant improvement of total distance moved and/or turn angle parameters, which were chosen as indicators of locomotor function. […]

[3] = 25 μM from 1 dpi, assessed at 2 dpi, dark periods, vs vehicle

Chain of 5-HT1D (P28221 whole entry, species assumed): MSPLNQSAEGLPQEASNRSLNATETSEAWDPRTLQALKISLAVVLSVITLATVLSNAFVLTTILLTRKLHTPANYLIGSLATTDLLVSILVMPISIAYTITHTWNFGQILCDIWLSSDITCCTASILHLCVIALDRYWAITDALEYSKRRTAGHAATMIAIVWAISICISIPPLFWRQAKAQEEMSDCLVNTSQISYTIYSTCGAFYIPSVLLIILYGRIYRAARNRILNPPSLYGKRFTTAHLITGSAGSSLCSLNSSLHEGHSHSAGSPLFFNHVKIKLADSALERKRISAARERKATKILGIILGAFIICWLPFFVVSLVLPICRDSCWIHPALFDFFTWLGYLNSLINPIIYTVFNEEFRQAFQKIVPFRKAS

SMILES: CN1CCC[C@@H]1Cc1c[nH]c2ccc(CCS(=O)(=O)c3ccccc3)cc12 [Eletriptan Hbr, Eletriptan Hydrobromide]
- affinity (5-HT1D): high affinity
- animals that acquired a mild trunk stability ([1]; 42 dpi): 46%
- mice with frequent plantar stepping with parallel placement of both hindlimb paws at initial contact ([1]; 42 dpi): 85%
- mice with parallel placement of at least one of the hindlimb paws at lift off ([1]; 42 dpi): 23%
- events that block the walking movement such as spasms and but downs ([1]; 42 dpi, observed during BMS testing, vs Vehicle): less events
- mice that achieved a BMS score of 5 (frequent or consistent plantar stepping) ([1]; 42 dpi, of thirteen treated mice): twelve
- mice that achieved a BMS score of 6 (frequent plantar stepping with some fore-hindlimb coordination) ([1]; 42 dpi, thirteen treated mice): one out of thirteen
- average BMS subscores compared to Vehicle-treated mice ([1]; from 7 to 42 dpi): consistently higher
- average BMS subscores compared to Vehicle-treated mice ([1]; from 35 dpi to 42 dpi): significantly higher
- time at which average BMS scores reached a plateau ([1]; i.p. from 1 hpi, daily until 15 dpi): 28-35 dpi
- BMS scores over time compared to Vehicle-treated mice ([1]; i.p. from 1 hpi, daily until 15 dpi, 1 to 42 dpi): consistently but not significantly higher
- affinity (5-HTIF): high affinity
- total distance moved [2, 3]: rescues motor impairments
- turn angle [2, 3]: rescues motor impairments
- locomotor impairments ([2]; 25 μM in medium from 1 dpi for 24 hours, behavioural assessment at 2 dpi, vs vehicle treated injured larvae): rescue locomotor impairments
